Experimental data: patent US20220241263A1, “PD-1 AXIS BINDING ANTAGONIST TO TREAT CANCER WITH GENETIC MUTATIONS IN SPECIFIC GENES” (Ares Trading S.A., priority 2019, published 2022)
Like-named read-outs stand apart in the source and are kept apart here.

What was measured:
[1] = test system: patients with advanced renal cell carcinoma; assay: CD8 immunohistochemistry study: PFS by number of CD8+ cells at the invasive margin in the phase 3 study; format: in vivo, human
Experimental: CD8 expression was assessed by immunohistochemistry using clone C8/144B and reported in terms of the number of CD8+ cells in relation to the total number of […] or at the invasive margin, with the median value as the cut point.

[2] = test system: patients with advanced RCC (aRCC); assay: Phase 3 clinical trial of avelumab in combination with axitinib versus sunitinib (NCT02684006); format: in vivo, human
Experimental: Patients will be stratified according to ECOG performance status (0 versus 1) and LDH (>1.5 ULN vs. ≤1.5 ULN). In arm A (avelumab in combination with axitinib), avelumab will be given as a 1 hour intravenous infusion (IV) every 2 weeks in a 6-week cycle. Axitinib will be given orally (PO) twice daily (BID), with or without food, on a continuous dosing schedule.
Axitinib treatment may be adjusted by dosing interruption with or without dose reduction. Intrapatient axitinib dose escalation may occur if the intrapatient escalation criteria are met.
Study Treatment: Axitinib will be given orally twice daily PO on a continuous daily dosing schedule. Avelumab will be given as a 1 hour intravenous infusion every 2 weeks in a 6-week cycle.
Tumor Assessments: Anti-tumor activity will be assessed by radiological tumor assessments and will be based on RECIST guidelines version 1.1 for primary and secondary endpoints and on immune-related RECIST (irRECIST) guidelines for exploratory endpoints. Tumor assessments will be performed every 6 weeks (Q6W) up to 1 year from first dose therapy; thereafter, tumor assessments will be performed every 2 cycles. […]

[3] = test system: patients with advanced renal cell carcinoma
Description: Transcript levels were quantitated by the Personalis ACE Cancer Transciptome Analysis pipeline which uses STAR version 2.4.2a-p1 to align reads to the NCBI hs37d5 annotation 105 reference genome and produces Transcripts Per Million (TPM) values for each gene. TPM values were log2 transformed for further analysis.
Weighted Gene Co-Expression Network Analysis (WGCNA) was used to find co-expressed modules in the 720 baseline transcriptomic samples. […] The soft power of 6 was chosen based on goodness of fit to a scale-free network. A signed WGCNA network was constructed in R^37 with mergeCutHeight set to 0.25 and reassignThreshold set to 0. After removing non-coding genes and modules with size <10, 25 modules were identified. Gene signature scores were computed from the average expression of genes in a module. Univariate Cox Proportional Hazards (Cox PH) model was used to assess the dependence of PFS on each gene signature, which was categorized into high vs low groups according to median signature score. Multivariate analysis was also carried out adjusting for age and sex. Modules were annotated through identifying top enriched gene sets via hypergeometric tests using public gene set collections including the MSigDB Hallmark, GO Biological Process and LM22.
To assess the robustness of identified gene modules, next was carried out a consensus WGCNA analysis. […] The soft power of 6 was chosen based on goodness of fit to a scale-free network. 720 baseline data were randomly subsampled down to 80% of samples for 1,000 times. With each subsampled dataset, we constructed a co-expression network using the WGCNA procedure as described above. An adjacency matrix was constructed by counting the frequencies two genes were clustered into the same network module. A consensus network was then constructed using the new adjacency matrix via the standard WGCNA approach. Edges were then filtered by adjacency measure of 0.8. Modules with size <10 were removed. Consensus WGCNA identified 23 modules. Hypergeometric tests were then carried out to annotate modules as described above.
To refine the 306-gene immune response module, we selected genes annotated for immune-related functionality and had univariate Cox PH p-value <0.01 in the combination arm.

[4] = test system: patients with advanced renal cell carcinoma; remark: listed apart in the source
Experimental: Tumor samples were collected from patients in Example 2 and were subject to whole exome sequencing to identify genetic mutations. Software tools BWA and a combination of MuTect, Vardict, Picard, and other vendor tools were used.
The Cox proportional hazards (PH) regression model was used to assess the dependence of progression-free survival (PFS) on mutational status of each gene. In addition, multivariate analysis was also carried out adjusting for age, sex and tumor mutation burden. […] Genes were filtered based on the following criteria: • A. Mutated at 5% or more in the B9991003 cohort • B. Interaction term P-value<0.05 in both model (1) and model (2), testing for treatment specific differences of the mutations on survival outcome. • C.

[5] = in vivo; cited from earlier work
[6] = patients with CDL163L1 mutation
[7] = patients with CDL163L1 wild type
[8] = patients with LOC728763 mutation
[9] = patients with LOC728763 wild type
[10] = patients with SPATA31C2 mutation
[11] = patients with SPATA31C2 wild type

CCN(CC)CCNC(=O)c1c(C)[nH]c(/C=C2\C(=O)Nc3ccc(F)cc32)c1C [sunitinib]
median PFS ([1]; high numbers of CD8+ cells at the invasive margin): 7.1 months
median PFS ([1]; low numbers of CD8+ cells): 11.1 months
HR for PFS, high vs low numbers of CD8+ cells at the invasive margin ([1]; within treatment arm): 1.42
patients had died ([2]; PD-L1-positive tumors, median follow-up for overall survival 11.6 and 10.7 months): 44 patients
objective response rate ([2]; patients with PD-L1-positive tumors): 25.5%
median PFS ([3]; greater than median expression of JAVELIN Renal 101 Immuno Signature): 8.3 months
median PFS ([3]; less than median expression of JAVELIN Renal 101 Immuno Signature): 9.0 months
HR for PFS by tumor mutational burden (TMB) ([3]; within treatment arm): 0.79
HR for PFS, high expression of IMmotion 150 angiogenesis signature ([3]; within treatment arm): 0.64
HR for PFS, high vs low JAVELIN Renal 101 Angiogenesis Signature ([3]; within treatment arm): 0.56
HR for PFS, high vs low JAVELIN Renal 101 Immuno Signature ([3]; within treatment arm): 0.98
Rate of PFS at 15 months ([4]; patients with ABCA1 mutation): 25%
Rate of PFS at 15 months ([4]; patients with ABCA1 wild type): 25%
Rate of PFS at 20 months ([4]; patients with ABCA1 wild type): 25%
Rate of PFS at 15 months ([4]; patients with ARVCF mutation): 43%
Rate of PFS at 20 months ([4]; patients with ARVCF mutation): 39%
Rate of PFS at 15 months ([4]; patients with ARVCF wild type): 22%
Rate of PFS at 20 months ([4]; patients with ARVCF wild type): 22%
Rate of PFS at 15 months [4, 6]: 15%
Rate of PFS at 20 months [4, 6]: 15%
Rate of PFS at 15 months [4, 7]: 25%
Rate of PFS at 20 months [4, 7]: 25%
Rate of PFS at 15 months ([4]; patients with DNMT1 mutation): 0%
Rate of PFS at 20 months ([4]; patients with DNMT1 mutation): 0%
Rate of PFS at 15 months ([4]; patients with DNMT1 wild type): 25%
Rate of PFS at 20 months ([4]; patients with DNMT1 wild type): 25%
Rate of PFS at 15 months ([4]; patients with FOXO1 mutation): 10%
Rate of PFS at 20 months ([4]; patients with FOXO1 mutation): 10%
Rate of PFS at 15 months ([4]; patients with FOXO1 wild type): 25%
Rate of PFS at 20 months ([4]; patients with FOXO1 wild type): 25%
Rate of PFS at 15 months ([4]; patients with IL16 mutation): 25%
Rate of PFS at 20 months ([4]; patients with IL16 mutation): 25%
Rate of PFS at 15 months ([4]; patients with IL16 wild type): 23%
Rate of PFS at 20 months ([4]; patients with IL16 wild type): 23%
Rate of PFS at 15 months [4, 8]: 25%
Rate of PFS at 20 months [4, 8]: 25%
Rate of PFS at 15 months [4, 9]: 23%
Rate of PFS at 20 months [4, 9]: 23%
Rate of PFS at 15 months ([4]; patients with MCR1 mutation): 30%
Rate of PFS at 15 months ([4]; patients with MCR1 wild type): 30%
Rate of PFS at 20 months ([4]; patients with MCR1 wild type): 30%
Rate of PFS at 15 months ([4]; patients with MYH7B mutation): 10%
Rate of PFS at 15 months ([4]; patients with MYH7B wild type): 25%
Rate of PFS at 20 months ([4]; patients with MYH7B wild type): 25%
Rate of PFS at 15 months ([4]; patients with PTEN mutation): 20%
Rate of PFS at 15 months ([4]; patients with PTEN wild type): 25%
Rate of PFS at 20 months ([4]; patients with PTEN wild type): 25%
Rate of PFS at 15 months [4, 10]: 25%
Rate of PFS at 20 months [4, 10]: 25%
Rate of PFS at 15 months [4, 11]: 23%
Rate of PFS at 20 months [4, 11]: 23%
Rate of PFS at 15 months ([4]; patients with STAB2 mutation): 30%
Rate of PFS at 20 months ([4]; patients with STAB2 mutation): 30%
Rate of PFS at 15 months ([4]; patients with STAB2 wild type): 25%
Rate of PFS at 20 months ([4]; patients with STAB2 wild type): 25%

avelumab: an anti-PD-L1 IgG1 monoclonal antibody
half-life [5]: 72 to 120 h
